According to patent US20260158002A1, “APPLICATION OF COMPOSITION CONTAINING EDARAVONE AND DEXBORNEOL IN IMPROVING OR TREATING COGNITIVE IMPAIRMENT” (NEURODAWN PHARMACEUTICAL CO., LTD., priority 2021, published 2026):

Columns and labels:
[1] = tested on: primary cortical neurons; assay: Aβ1-42-induced primary cortical neuronal injury test (Luminescent Cell Viability Assay); type: cell-based, rat; conditions: single agent, pre-incubation 30 min before oligomerized Aβ1-42 50 μM, 24 h; edaravone 3.7 to 100 μM, dexborneol 1.2 to 100 μM; vs DMSO group
Protocol: A SD pregnant rat at 18 days of pregnancy was sacrificed by cervical dislocation, the uteruses of the rat were dissected, the brain of E18 fetal rat was taken out, the cerebral cortical tissue of the fetal rat was isolated into an ice-cold DMEM, the meninge and blood vessels were removed from the cortical tissue under a dissecting microscope, the cortical tissue was transferred to an ice-cold DMEM and minced (about 1 mm^3), and digested with trypsin at 37° C. for 10 min, the digestion was terminated with FBS, a Pasteur pipette was used to perform gentle pipetting and dispersing, and screening was then performed using a 200-mesh sieve. […] The cells were counted by a hemocytometer, diluted to 5×10^5 cells/ml with a complete medium, and seeded in a 96-well plate coated with PDL (100 μL/well) for culture. […]
The medium of the in vitro matured primary neurons was replaced with a complete medium containing different concentrations (1.2, 3.7, 11.1, 33.3, 100.0 μM) of edaravone (E), dexborneol (B) or an edaravone and dexborneol composition (EB), after incubation at 37° C. for 30 min, oligomerized Aβ1-42 (final concentration of 50 μM) was added, the culture was continued for 24 h, and the neuronal viability was tested. […] LUMbackground is the background reading of the cell-free medium well into which Luminescent Cell Viability Assay kit is added. […]

[2] = tested on: 5×FAD transgenic mice; assay: Water maze test in 5×FAD transgenic mice; type: in vivo, mouse; conditions: 5×FAD mice
Protocol: In the experiment, the animals were divided into 4 groups. Administration was performed on the mice in each group from 8 weeks of age. After 16 weeks of continuous daily administration, water maze and Y maze behavioral tests were performed. After the behavioral tests were completed, the animals were sacrificed, and brain slice electrophysiology and AD pathology within the brain were tested, including the test of Aβ plaques, biomarkers such as GFAP and Iba-1, p-Tau, etc.
5×FAD: edaravone group: ten 5×FAD mice were given edaravone ( ? ®) 6 mg/kg via i.p. at a dose of 10.0 mL/kg once daily.
5×FAD: composition group: ten 5×FAD mice were given 7.5 mg/kg edaravone and dexborneol concentrated solution for injection ( ? ®) (edaravone:dexborneol=4:1, containing 6 mg/kg edaravone and 1.5 mg/kg dexborneol) at a dose of 10.0 ml/kg once daily.
Experiment preparation: A constant temperature pool (120 cm in inner diameter and 50 cm in height) of a water maze was filled with clear water. The water temperature was controlled at about 18° C.-22° C. The four apexes of the pool were selected and designated as “S”, “N”, “W” and “E”, respectively. The platform was placed in the “SW” direction and 1-2 cm below the water surface. Titanium dioxide was added to the water to make the water opaque milky white.
Parameter setting: the test time was set to 1 min, and the residence time of mice on the platform was set to 2 s.
Training: The first 5 days were for the training phase of the water maze, the mice were placed in the pool in four different orientations every day, and their trajectories before boarding the platform, as well as the travel and time in each quadrant were recorded.
Testing: Testing was performed on the first day after the training was completed. During the testing, the platform was removed, the testing time was 60 s, the mouse was placed in the NE orientation, and the number of times the mouse crossed the platform and the time in the platform quadrant during the testing were recorded.
Data were expressed as Mean±SEM. […]

[3] = tested on: SH-SY5Y and primary cortical neurons; conditions: cited from earlier work
[4] = tested on: rat model of L-methionine-induced vascular dementia; conditions: intraperitoneal 6 mg/kg/day for 9 consecutive weeks; cited from earlier work
[5] = edaravone 6 mg/kg or composition 7.5 mg/kg i.p. once daily for 16 weeks

Question: Which “inhibiting Aβ-induced neurotoxicity, increasing the cell viability” value [1] does the source give for `CC1=NN(c2ccccc2)C(=O)C1` [edaravone, 3-methyl-1-phenyl-2-pyrazolin-5-one] here?
Answer: capable of inhibiting Aβ-induced neurotoxicity in a concentration-dependent manner

Question: And the “number of times the mouse crossed the platform in platform withdrawal test, vs solvent control” value [2, 5]?
Answer: prolong the residence time in the target quadrant and the number of times the mouse crossed the platform

Question: What about the “residence time in the target quadrant in platform withdrawal test, vs solvent control” value [2, 5] of the same compound?
Answer: prolong the residence time in the target quadrant

Question: What about the “escape latency in water maze hidden platform test, vs solvent control” value ([2]; edaravone 6 mg/kg or composition 7.5 mg/kg i.p. once daily for 16 weeks from 8 weeks of age) of the same compound?
Answer: could significantly shorten the escape latency

Question: What about the “neurotoxicity of Aβ1-42” value [3] of the same compound?
Answer: capable of reducing the neurotoxicity of Aβ1-42 to SH-SY5Y and primary cortical neurons

Question: And the “spatial learning and memory in eight-arm water maze test” value [4]?
Answer: can significantly improve the spatial learning and memory of the model rats in eight-arm water maze test
